The target of one experiment is T1, μ-specific opiate receptor (Rattus norvegicus, UniProt P33535).
T1 construct: Rat forebrains were homogenized and washed; from tissue; host or cells: rat forebrain membranes
T1 sequence (P33535 whole entry): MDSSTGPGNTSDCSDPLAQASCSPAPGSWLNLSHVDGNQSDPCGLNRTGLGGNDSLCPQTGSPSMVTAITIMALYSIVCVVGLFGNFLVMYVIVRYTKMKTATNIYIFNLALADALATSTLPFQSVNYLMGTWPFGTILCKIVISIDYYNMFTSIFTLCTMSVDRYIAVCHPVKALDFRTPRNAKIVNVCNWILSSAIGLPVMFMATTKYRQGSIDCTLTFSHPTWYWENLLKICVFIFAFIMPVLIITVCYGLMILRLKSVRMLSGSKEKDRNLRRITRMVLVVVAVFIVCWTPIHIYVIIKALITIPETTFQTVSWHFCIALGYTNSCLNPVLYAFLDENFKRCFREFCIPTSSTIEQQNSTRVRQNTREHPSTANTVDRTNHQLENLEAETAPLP
The experiment is described as follows: in vitro solution-phase radioligand competition assay ([3H]-DAMGO, rat forebrain membranes). The class given is binding. The note with it: 1 nM [3H]-DAMGO, pH 7.5, 1 hr room temperature. On the procedure:
Compounds were screened in vitro using the following assay:
High-affinity ligands for the μ-specific opiate receptor were identified from a diverse peptoid library by testing the pools of compounds in solution-phase radioligand competition assays, and tracing the binding activity to individual compounds by iterative resynthesis and screening of smaller sub-pools.
Rat forebrains were homogenized and washed in 50 mM Tris, pH 7.5 containing 20 mM NaCl, 5 mM EGTA, 2 mM MgCl2, 21 μg/mL aprotinin, 0.5 mg/L leupeptin, 0.7 mg/L pepstatin, 0.2 Mm PMSF. 50 μL of membrane (10 mg/mL protein) were dispensed into 1 mL of 50 mM Tris, pH 7.5, 1 nM [^3 H]-DAMGO and the peptoid mixture. All assays were performed at 100 nM per peptoid.
Nonspecific binding was determined as [^3 H]-DAMGO bound in the presence of 1 μM naloxone. Incubation was for 1 hr at room temperature. Unbound radioactivity was removed by rinsing the membranes on Whatman GF/B glass fiber filters. Each filter was washed 3 times with 3 mL of 50 mM Tris, pH 7.5, 4° C. Filters were soaked overnight in 5 mL of Beckman ReadySafe scintillation cocktail and then counted for one minute in a Wallac 1409 liquid scintillation counter. Assays were performed in duplicate.
`COc1ccc(CN(CC(=O)N(CCc2ccc(O)cc2)CC(N)=O)C(=O)CNCC(c2ccccc2)c2ccccc2)cc1OC` [CHIR-4537, Nbhm-Nddb-Nhtyr] came in with a Ki of 45 nM.
In turn, `CCCCCN(CC(=O)N(CCc1ccc(O)cc1)CC(N)=O)C(=O)CNCC(c1ccccc1)c1ccccc1` [CHIR-4534, Nbhm-Npen-Nhtyr] yielded a Ki of 30 nM.
In turn, `NC(=O)CN(CCc1ccc(O)cc1)C(=O)CN(Cc1ccc2c(c1)OCO2)C(=O)CNCC(c1ccccc1)c1ccccc1` [CHIR-4531, Nbhm-Nmdb-Nhtyr] displayed a Ki of 7 nM.

The experiment is the same for the next values; noted with them: at 100 nM, 1 nM [3H]-DAMGO, pH 7.5, 1 hr room temperature.
For the molecule `NC(=O)CN(CCc1ccc(O)cc1)C(=O)CN(Cc1ccc2c(c1)OCO2)C(=O)CNCCC(c1ccccc1)c1ccccc1` [CHIR 4622, Nbhe-Nmdb-Nhtyr], the inhibition at 0.1 µM was found to be 78%.
On the same count and under the same terms, then `NC(=O)CN(CCc1ccc(O)cc1)C(=O)CN(Cc1ccc2c(c1)OCO2)C(=O)CNCC=C(c1ccccc1)c1ccccc1` [CHIR 5062, Nbvp-Nmdb-Nhtyr], with 65%; and `NC(=O)CN(CCc1ccc(O)cc1)C(=O)CN(Cc1ccc2c(c1)OCO2)C(=O)C=CCNCC(c1ccccc1)c1ccccc1` [CHIR 5045, Nvbhm-Nmdb-Nhtyr], with 58%; and `CC(NCC(c1ccccc1)c1ccccc1)C(=O)N(CC(=O)N(CCc1ccc(O)cc1)CC(N)=O)Cc1ccc2c(c1)OCO2` (stereo not shown) [CHIR 5052, Nbha-Nmdb-Nhtyr], with 73%.
Same read-out and setting: then `COc1cc(CN(CC(=O)N(CCc2ccc(O)cc2)CC(N)=O)C(=O)CNCC(c2ccccc2)c2ccccc2)cc(OC)c1OC` [CHIR 4626, Nbhm-Ntrnb-Nhtyr], with 86%; and `NC(=O)CN(CCc1ccccc1)C(=O)CN(Cc1ccccc1)C(=O)CNCC(c1ccccc1)c1ccccc1` [CHIR 4628, Nbhm-Nphe-Nhphe], with 77%; and `NC(=O)CN(CCc1ccc(O)cc1)C(=O)CN(Cc1ccccc1)C(=O)CNCC(c1ccccc1)c1ccccc1` [CHIR 4627, Nbhm-Nphe-Nhtyr], with 90%.
